The values that follow come from patent US8071592B2 (priority 2006, dated 2011).

The structures appear in SMILES notation. Where a name gives a salt, the structure may show the parent alone.

For the first test, the system named is Gram-positive organisms (Staphylococcus aureus, Streptococcus pneumoniae, Streptococcus pyogenes, Enterococcus faecalis, Enterococcus faecium) and ….
Assay: not given
As to conditions: against a strain of at least one of the organisms listed; tested in at least one exemplified salt form. The format is cell-based.
As to `CC(C)(O)c1c(F)cnc2ccc(=O)n(CCN3CCC(NCc4ccc5c(n4)NC(=O)CO5)CC3)c12` [Example 183], the MIC (usually the lowest concentration that inhibits growth of the organism) is 16 µg/mL.

As for `COc1ccc2ncc(=O)n(CCN3C[C@H](CNCc4ccn5ccc(=O)nc5c4)[C@H](O)C3)c2n1` [Example 272], the minimal inhibitory concentration (MIC) was over 16 µg/mL.

In the next test the test system is Mycobacterium tuberculosis H37Rv. The test can be described thus: Mycobacterium tuberculosis H37Rv Inhibition Assay (resazurin, MIC). Format: cell-based. As to conditions: ATCC 25618 / H37Rv, 144 h, H37Rv strain (ATCC25618), Middlebrook 7H9+ADC medium, six days at 37° C., resazurin fluorescence after 48 hours, read-out: MIC value.
In the case of `O=C1CSc2ccc(CNC[C@@H]3C[C@H](O)CN(CCn4c(=O)ccc5ccc(F)cc54)C3)nc2N1` (racemic) [Example 158], the minimum inhibitory concentration (MIC) was at most 4 µg/mL.

Regarding `O=c1cnc2ccc(F)cc2n1CCN1CC[C@H](NCc2cc3c(nn2)OCCO3)[C@H](O)C1` (single isomer, unassigned) [Example 193], the minimum inhibitory concentration (MIC) was at most 4 µg/mL. The same measure, in the same setting: the value for `Cl.O=c1ccc2ccc(F)cc2n1CCN1CCC(NCc2cc3c(cn2)OCCO3)CC1` [Example 2, 1-(2-{4-[(2,3-dihydro[1,4]dioxino[2,3-c]pyridin-7-ylmethyl)amino]-1-piperidinyl}ethyl)-7-fluoro-2(1H)-quinolinone Hydrochloride] was at most 4 µg/mL. As for `O=c1ccc2ncc(F)cc2n1CCN1CCC(NCc2cc3c(cn2)OCCO3)CC1` [Example 7, 1-(2-{4-[(2,3-Dihydro[1,4]dioxino[2,3-c]pyridin-7-ylmethyl)amino]-1-piperidinyl}ethyl)-7-fluoro-1,5-naphthyridin-2(1H)-one Hydrochloride], the MIC was at most 4 µg/mL. As for `COc1ccc2ccc(=O)n(CCN3CCC(NCc4cc5c(nn4)OCCO5)CC3)c2n1` [Example 17, 1-(2-{4-[(6,7-dihydro[1,4]dioxino[2,3-c]pyridazin-3-ylmethyl)amino]-1-piperidinyl}ethyl)-7-(methyloxy)-1,8-naphthyridin-2(1H)-one Dihydrochloride], the minimal inhibitory concentration (MIC) is at most 4 µg/mL. Consider `O=c1cnc2ccc(F)cc2n1CCN1CCC(NCc2cc3c(cn2)OCCO3)CC1` [Example 20, 1-(2-{4-[(2,3-dihydro[1,4]dioxino[2,3-c]pyridin-7-ylmethyl)amino]-1-piperidinyl}ethyl)-7-fluoro-2(1H)-quinoxalinone Dihydrochloride], for which the MIC is at most 4 µg/mL. As for `COc1ccc2ncc(=O)n(CCN3CCC(NCc4cc5c(cn4)OCCO5)CC3)c2n1` [Example 37, 4-(2-{4-[(2,3-dihydro[1,4]dioxino[2,3-c]pyridin-7-ylmethyl)amino]-1-piperidinyl}ethyl)-6-(methyloxy)pyrido[2,3-b]pyrazin-3(4H)-one Dihydrochloride], the minimum inhibitory concentration (MIC) was at most 4 µg/mL. The same measure, in the same setting: in the case of `O=c1cnc2ccc(F)cc2n1CCN1CCC(NCc2cc3c(cn2)OCC3)CC1` [Example 38, 1-(2-{4-[(2,3-dihydrofuro[2,3-c]pyridin-5-ylmethyl)amino]-1-piperidinyl}ethyl)-7-fluoro-2(1H)-quinoxalinone Dihydrochloride] it was at most 4 µg/mL; in that of `COc1cnc2ncc(=O)n(CCN3CCC(NCc4cc5c(cn4)OCCO5)CC3)c2c1.O=CO.O=CO` [Example 51B, 1-(2-{4-[(2,3-dihydro[1,4]dioxino[2,3-c]pyridin-7-ylmethyl)amino]-1-piperidinyl}ethyl)-7-(methyloxy)pyrido[2,3-b]pyrazin-2(1H)-one diformate], at most 4 µg/mL.

With `O=c1cnc2c(F)cc(F)cc2n1CCN1CCC(NCc2cc3c(nn2)OCCO3)CC1` [Example 120], the MIC was at most 4 µg/mL. For `O=c1c(F)cc2ccc(F)cc2n1CCN1CCC(NCc2cc3c(cn2)OCCO3)CC1` [Example 180], the MIC is at most 4 µg/mL. In the case of `COc1ccc2ncc(=O)n(CCN3C[C@H](CNCc4cc5c(cn4)OCCO5)[C@@H](O)C3)c2n1` [Example 225], the MIC is at most 4 µg/mL.

As for `COc1ccc2ncc(=O)n(CCN3C[C@H](CNCc4cc5c(cn4)OCCO5)[C@H](O)C3)c2c1` [Example 226], the MIC was at most 4 µg/mL. Turning to `O=c1ccc2ncccc2n1CCN1CCC(NCc2cc3ccccc3o2)CC1` [Example 282], the MIC is at most 4 µg/mL. `O=c1ccc2ccc(F)cc2n1CCN1CCC(NCc2nc3ccccc3s2)CC1` [Example 287]: the MIC was at most 4 µg/mL.

Consider `O=c1ccc2ccccc2n1CCN1CCC(NCc2cc3ccccc3o2)CC1` [Example 288], for which the MIC was at most 4 µg/mL. On to `O=c1ccc2ccccc2n1CCN1CCC(NCc2cc3cc(Cl)ccc3s2)CC1` [Example 289], for which the MIC was at most 4 µg/mL. Same read-out and setting: the value for `COc1ccc2ccc(=O)n(CCN3CCC(NCc4ccc5nnn(C)c5c4)CC3)c2c1` [Example 302] was at most 4 µg/mL.

Still in this test, the particulars now being: ATCC 25618 / H37Rv, 144 h, read-out: MIC value, H37Rv strain (ATCC25618), Middlebrook 7H9+ADC medium, six days at 37° C., resazurin fluorescence after 48 hours.
Consider `COc1ccc2ccc(=O)n(CCN3C[C@@H](CNCc4ccc5c(n4)NC(=O)CO5)[C@@H](O)C3)c2c1` [Example 53, 6-({[((3R,4R)-4-hydroxy-1-{2-[7-(methyloxy)-2-oxo-1(2H)-quinolinyl]ethyl}-3-pyrrolidinyl)methyl]amino}methyl)-2H-pyrido[3,2-b][1,4]oxazin-3(4H)-one dihydrochloride], for which the MIC was at most 4 µg/mL.

As to `O=c1ccc2c(F)cc3c(c2n1CCN1CCC(NCc2cc4c(cn2)OCCO4)CC1)OCCO3` [Example 57, 10-(2-{4-[(2,3-dihydro[1,4]dioxino[2,3-c]pyridin-7-ylmethyl)amino]-1-piperidinyl}ethyl)-6-fluoro-2,3-dihydro[1,4]dioxino[2,3-h]quinolin-9(10H)-one hydrochloride], the minimum inhibitory concentration (MIC) is at most 4 µg/mL. `COc1ccc2ccc(=O)n(CCN3C[C@H](CNCc4cc5c(cn4)OCCO5)[C@H](O)C3)c2c1` [Example 74, 1-[2-((3S,4S)-3-{[(2,3-dihydro[1,4]dioxino[2,3-c]pyridin-7-ylmethyl)amino]methyl}-4-hydroxy-1-pyrrolidinyl)ethyl]-7-(methyloxy)-2(1H)-quinolinone Hydrochloride]: the MIC was at most 4 µg/mL.

Turning to `Cc1cc(=O)n(CCN2CCC(NCc3cc4c(cn3)OCCO4)CC2)c2cc(F)ccc12` [Example 131, 1-(2-{4-[(2,3-Dihydro[1,4]dioxino[2,3-c]pyridin-7-ylmethyl)amino]-1-piperidinyl}ethyl)-7-fluoro-4-methyl-2(1H)-quinolinone Dihydrochloride], the minimal inhibitory concentration (MIC) is at most 4 µg/mL. Same read-out and setting: in the case of `O=c1ccc2ccc(F)cc2n1CCN1CC[C@@H](O)[C@@H](CNCc2cc3c(cn2)OCCO3)C1` [Example 138, 1-[2-((3S,4R)-3-{[(2,3-Dihydro[1,4]dioxino[2,3-c]pyridin-7-ylmethyl)amino]methyl}-4-hydroxy-1-piperidinyl)ethyl]-7-fluoro-2(1H)-quinolinone Dihydrochloride] it was at most 4 µg/mL.

Still in this test, the particulars now being: ATCC25618|H37RV, 144 h, H37Rv strain (ATCC25618), Middlebrook 7H9+ADC medium, six days at 37° C., resazurin fluorescence after 48 hours, read-out: MIC value.
For `O=c1ccc2ncc(F)cc2n1CCN1CCC(NCc2cc3c(nn2)OCCO3)CC1` [Example 9, Hydrochloride], the MIC is at most 4 µg/mL.
